Measurements published in patent US20160369115A1, “POLARIZING PLATE COMPOSITION, POLARIZING PLATE PROTECTIVE FILM, POLARIZER, POLARIZING PLATE, LIQUID CRYSTAL DISPLAY DEVICE, AND COMPOUND USED IN THE LIQUID CRYSTAL DISPLAY DEVICE” (FUJIFILM Corporation, priority 2014, published 2016).

Test: Solubility of additive in water
Type: physicochemical
Conditions: amount of the additive dissolving in 100 ml of pure water at 25° C.
Description: The amount of the additive dissolving in 100 ml of pure water at 25° C. was measured and evaluated according to the following criteria.

| Compound | Solubility in water |
| --- | --- |
| COC(=O)Oc1[nH]c(=O)n(CCCS(=O)(=O)[O-])c(=O)c1Cc1ccc(C=O)cc1.[Na+] [Example compound AAC] | A (Equal to or greater than 5 g) |
| COC(=O)Oc1[nH]c(=O)n(Cc2ccc(B(O)O)cc2)c(=O)c1Cc1ccc(S(=O)(=O)[O-])cc1S(=O)(=O)[O-].[Na+].[Na+] [Example compound AAL] | A (Equal to or greater than 5 g) |
| CCO[Si](CCCNC(=O)OCCn1c(=O)[nH]c(OC(=O)OC)c(Cc2ccc(S(=O)(=O)[O-])cc2S(=O)(=O)[O-])c1=O)(OCC)OCC.[Na+].[Na+] [Example compound AAP] | A (Equal to or greater than 5 g) |
| COC(=O)Oc1[nH]c(=O)n(Cc2ccc(F)c(F)c2)c(=O)c1Cc1ccc(S(=O)(=O)[O-])cc1S(=O)(=O)[O-].[Na+].[Na+] [Example compound AAS] | A (Equal to or greater than 5 g) |
| COC(=O)Oc1[nH]c(=O)n(Cc2ccc(S(=O)(=O)[O-])cc2)c(=O)c1C=O.[Na+] [Example compound AAV] | A (Equal to or greater than 5 g) |
| COC(=O)Oc1c(Cc2ccccc2)c(=O)n(CS(=O)(=O)[O-])n1C.[Na+] [Example compound AH] | A (Equal to or greater than 5 g) |
| COC(=O)Cc1c(Cc2ccc(S(=O)(=O)[O-])cc2S(=O)(=O)[O-])c(=O)[nH]c2ccccc12.[Na+].[Na+] [Example compound AJ] | A (Equal to or greater than 5 g) |
| COC(=O)Oc1c(Cc2ccc(S(=O)(=O)[O-])cc2S(=O)(=O)[O-])c(=O)n(-c2ccccc2)c(=O)n1Cc1ccccc1.[Na+].[Na+] [Example compound B] | A (Equal to or greater than 5 g) |
| CCOC(=O)Oc1c(Cc2ccccc2S(=O)(=O)[O-])c(=O)n(-c2ccccc2)c(=O)n1-c1ccccc1.[Na+] [Example compound D] | A (Equal to or greater than 5 g) |
| O=C(Oc1c(Cc2ccccc2S(=O)(=O)[O-])c(=O)n(-c2ccccc2)c(=O)n1-c1ccccc1)OC1c2ccccc2-c2ccccc21.[Na+] [Example compound H] | B (Equal to or greater than 1 g and less than 5 g) |
| CC(C)[Si](Oc1c(Cc2ccccc2)c(=O)n(CS(=O)(=O)[O-])c(=O)n1C)(C(C)C)C(C)C.[Na+] [Example compound L] | A (Equal to or greater than 5 g) |
| O=C([O-])c1ccc(Cc2c(OCOCc3ccccc3)n(-c3ccccc3)c(=O)n(-c3ccccc3)c2=O)cc1.[Na+] [Example compound O] | B (Equal to or greater than 1 g and less than 5 g) |
| O=C1NC(=O)N(Cc2ccccc2)C(=O)C1c1ccccc1 (stereo not drawn) [Organic acid 1, reference compound] | C (Less than 1 g.) |
| Nc1c(F)c(F)c(C(=O)O)c(F)c1F [Organic acid 2, reference compound] | B (Equal to or greater than 1 g and less than 5 g) |
| [Cl-].[Cl-].[Zn+2] [ZnCl2, reference compound] | A (Equal to or greater than 5 g) |
